As usually defined, the inhibition is the relative decrease from the control value, in per cent.

This assay addresses T1, human cloned dopamine D4.2 receptors (Homo sapiens, UniProt P21917, DEL265-296).
T1 construct: expressed in transfected cells; host or cells: CHO cells
T1 sequence (P21917 with tags, fused parts or gaps DEL265-296): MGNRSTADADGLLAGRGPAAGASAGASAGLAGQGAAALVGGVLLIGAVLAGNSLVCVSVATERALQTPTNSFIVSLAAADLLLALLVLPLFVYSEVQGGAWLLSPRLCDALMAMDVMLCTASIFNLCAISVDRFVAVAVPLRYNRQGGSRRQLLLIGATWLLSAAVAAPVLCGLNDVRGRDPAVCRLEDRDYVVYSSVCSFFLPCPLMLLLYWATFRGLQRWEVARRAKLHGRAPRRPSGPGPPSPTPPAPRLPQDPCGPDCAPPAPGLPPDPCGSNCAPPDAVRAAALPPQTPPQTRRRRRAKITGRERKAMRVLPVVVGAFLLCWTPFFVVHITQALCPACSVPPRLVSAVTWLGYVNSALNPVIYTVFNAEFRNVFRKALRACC
Kind of assay: Inhibition of the binding of [3H]YM-09151-2 to human dopamine D4 receptors. The note with it: 50 nM compound; [3H]YM-09151-2 0.06 nM; membranes of CHO-cells. On the procedure:
Inhibition of the Binding of [^3H]YM-09151-2 to Human Dopamine D4 Receptors
By this method, the inhibition by drugs of the binding of [^3H]YM-09151-2 (0.06 nM) to membranes of human cloned dopamine D4.2 receptors expressed in CHO-cells is determined in vitro. The method is modified from NEN Life Science Products, Inc., technical data certificate PC2533-10/96.
`Cc1ccc(NC(=O)c2ccc(Cl)cc2)cc1CCN1CCC(c2c[nH]c3c(Cl)cccc23)CC1` [Compound 3ab, 3-(1-{2-[5-(4-Chlorobenzoylamino)-2-methylphenyl]ethyl}piperidin-4-yl)-7-chloro-1H-indole] displayed an inhibition at 0.05 µM of 79%. The molecule `Cc1ccc(NC(=O)C2CC2)cc1CCN1CCC(c2c[nH]c3c(Cl)cccc23)CC1` [Compound 3ag, 3-(1-{2-[5-(Cyclopropylmethanoylamino)-2-methylphenyl]ethyl}piperidin-4-yl)-7-chloro-1H-indole] returned an inhibition at 0.05 µM of 95%. Still for that read-out and setting: the figure for `Cc1ccc(NC(=O)CCc2ccccc2)cc1CCN1CCC(c2c[nH]c3ccc(F)cc23)CC1` [Compound 3l, 3-(1-{2-[2-Methyl-5-(3-phenylpropanoylamino)phenyl]ethyl}piperidin-4-yl)-5-fluoro-1H-indole] is 74%. On the same count and under the same terms, the figure for `Cc1ccc(NC(=O)C2CC2)cc1CCN1CCC(c2c[nH]c3cc(Cl)ccc23)CC1` [Compound 3o, 3-(1-{2-[5-(Cyclopropylmethanoylamino)-2-methylphenyl]ethyl}piperidin-4-yl)-6-chloro-1H-indole] is 99%; for `Cc1ccc(NC(=O)c2ccsc2)cc1CCN1CCC(c2c[nH]c3c(Cl)cccc23)CC1` [Compound 4j, 3-[1-(2-{2-Methyl-5-[(thiophen-3-ylmethanoyl)amino]phenyl}ethyl)piperidin-4-yl]-7-chloro-1H-indole] it is 48%. `Cc1ccc(C(=O)Nc2ccc(C)c(CCN3CCC(c4c[nH]c5c(Cl)cccc45)CC3)c2)cc1` [Compound 3af, 3-(1-{2-[2-Methyl-5-(4-methylbenzoylamino)phenyl]ethyl}piperidin-4-yl)-7-chloro-1H-indole] registered an inhibition at 0.05 µM of 90%. On to `Cc1ccc(C(=O)Nc2ccc(C)c(CCN3CCC(c4c[nH]c5cc(Cl)ccc45)CC3)c2)cc1` [Compound 3u, 3-(1-{2-[2-Methyl-5-(4-methylbenzoylamino)phenyl]ethyl}piperidin-4-yl)-6-chloro-1H-indole], for which the inhibition at 0.05 µM worked out at 86%. The molecule `Cc1ccc(NC(=O)c2ccccc2)cc1CCN1CCC(c2c[nH]c3c(Cl)cccc23)CC1` [Compound 4d, 3-(1-{2-[5-(benzoylamino)-2-Methylphenyl]ethyl}piperidin-4-yl)-7-chloro-1H-indole] registered an inhibition at 0.05 µM of 48%.

Turning to `COc1cccc(C(=O)Nc2ccc(C)c(CCN3CCC(c4c[nH]c5cc(Cl)ccc45)CC3)c2)c1` [Compound 3r, 3-(1-{2-[5-(3-Methoxybenzoylamino)-2-methylphenyl]ethyl}piperidin-4-yl)-6-chloro-1H-indole], the inhibition at 0.05 µM was determined as 88%. Take `Cc1ccc(NC(=O)c2ccncc2)cc1CCN1CCC(c2c[nH]c3c(Cl)cccc23)CC1` [Compound 4h, 3-[1-(2-{2-Methyl-5-[(pyridin-4-ylmethanoyl)amino]phenyl}ethyl)piperidin-4-yl]-7-chloro-1H-indole]: 0.05 µM produced 73% inhibition. On the same count and under the same terms, in the case of `Cc1ccc(NC(=O)C2CCOCC2)cc1CCN1CCC(c2c[nH]c3ccc(F)cc23)CC1` [Compound 3aa, 3-(1-{2-[2-Methyl-5-(tetrahydropyran-4-ylmethanoylamino)phenyl]ethyl}piperidin-4-yl)-5-fluoro-1H-indole] it was 96%.

`Cc1ccc(NC(=O)CCc2ccccc2)cc1CCN1CCC(c2c[nH]c3c(Cl)cccc23)CC1` [Compound 3ad, 3-[1-(2-{5-[(3-Phenylpropanoyl)amino]-2-methylphenyl}ethyl)piperidin-4-yl]-7-chloro-1H-indole] registered an inhibition at 0.05 µM of 83%. `Cc1ccc(NC(=O)CCC2CCCCC2)cc1CCN1CCC(c2c[nH]c3ccc(F)cc23)CC1` [Compound 3ac, 3-(1-{2-[5-(3-Cyclohexylpropanoylamino)-2-methylphenyl]ethyl}piperidin-4-yl)-5-fluoro-1H-indole] showed an inhibition at 0.05 µM of 97%. Still for that read-out and setting: the figure for `Cc1ccc(NC(=O)c2cccnc2)cc1CCN1CCC(c2c[nH]c3cc(Cl)ccc23)CC1` [Compound 3s, 3-(1-{2-[2-Methyl-5-(pyridin-3-ylmethanoylamino)phenyl]ethyl}piperidin-4-yl)-6-chloro-1H-indole] is 92%; for `Cc1ccc(NC(=O)c2cccs2)cc1CCN1CCC(c2c[nH]c3ccc(Cl)cc23)CC1` [Compound 3b, 3-(1-{2-[2-Methyl-5-(thiophen-2-ylmethanoylamino)phenyl]ethyl}piperidin-4-yl)-5-chloro-1H-indole] it is 86%. For “3-(1-{2-[5-(Isobutanolamino)-2-methylphenyl]ethyl}piperidin-4-yl)-5-fluoro-1H-indole [Compound 3f]”, the “% inhibition of binding at 50 nM” value is 96%. For `COc1cccc(C(=O)Nc2ccc(C)c(CCN3CCC(c4c[nH]c5ccc(F)cc45)CC3)c2)c1` [Compound 3j, 3-(1-{2-[5-(3-Methoxybenzoylamino)-2-methylphenyl]ethyl}piperidin-4-yl)-5-fluoro-1H-indole], 0.05 µM produced 90% inhibition. On to `Cc1ccc(NC(=O)N2CCOCC2)cc1CCN1CCC(c2c[nH]c3ccc(F)cc23)CC1` [Compound 3x, 3-(1-{2-[2-Methyl-5-(morfolin-4-ylmethanoylamino)phenyl]ethyl}piperidin-4-yl)-5-fluoro-1H-indole], for which the “% inhibition of binding at 50 nM” value amounted to 90%. For `CCCCCC(=O)Nc1ccc(C)c(CCN2CCC(c3c[nH]c4c(Cl)cccc34)CC2)c1` [Compound 3z, 3-(1-{2-[5-(Hexanoylamino)-2-methylphenyl]ethyl}piperidin-4-yl)-7-chloro-1H-indole], the inhibition at 0.05 µM stood at 91%. `Cc1ccc(NC(=O)c2cccs2)cc1CCN1CCC(c2c[nH]c3c(Cl)cccc23)CC1` [Compound 4i, 3-[1-(2-{2-Methyl-5-[(thiophen-2-ylmethanoyl)amino]phenyl}ethyl)piperidin-4-yl]-7-chloro-1H-indole] gave an inhibition at 0.05 µM of 85%. Still for that read-out and setting: the figure for `Cc1ccc(NC(=O)c2cccs2)cc1CCN1CCC(c2c[nH]c3cc(Cl)ccc23)CC1` [Compound 3p, 3-(1-{2-[2-Methyl-5-(thiophen-2-ylmethanoylamino)phenyl]ethyl}piperidin-4-yl)-6-chloro-1H-indole] is 92%; for `CC(=O)Nc1ccc(C)c(CCN2CCC(c3c[nH]c4ccc(F)cc34)CC2)c1` [Compound 3a, 3-(1-{2-[5-(Acetylamino)-2-methylphenyl]ethyl}piperidin-4-yl)-5-fluoro-1H-indole] it is 83%; for `Cc1ccc(NC(=O)c2cccs2)cc1CCN1CCC(c2c[nH]c3ccc(F)cc23)CC1` [Compound 3e, 3-(1-{2-[2-Methyl-5-(thiophen-2-ylmethanoylamino)phenyl]ethyl}piperidin-4-yl)-5-fluoro-1H-indole] it is 89%.

In the case of `Cc1ccc(NC(=O)C(C)(C)C)cc1CCN1CCC(c2c[nH]c3ccc(F)cc23)CC1` [Compound 3g, 3-(1-{2-[2-Methyl-5-(pivaloylamino)phenyl]ethyl}piperidin-4-yl)-5-fluoro-1H-indole], testing at 0.05 µM gave an inhibition of 86%. The same measure, in the same setting: the figure for `COc1cccc(C(=O)Nc2ccc(C)c(CCN3CCC(c4c[nH]c5ccc(Cl)cc45)CC3)c2)c1` [Compound 3c, 3-(1-{2-[2-Methyl-5-(3-methoxybenzoylamino)phenyl]ethyl}piperidin-4-yl)-5-chloro-1H-indole] is 68%.

These data come from patent US6743809B2, “Indole Derivatives useful for the treatment of CNS disorders” (H. Lundbeck A/S, priority 2000, dated 2004).
